Usually Tmax stands for the time from dosing to the highest level. As usually defined, the CL/F is clearance divided by bioavailability, as obtained after extravascular dosing. Usually AUC(0-inf) stands for the area under the concentration-time curve extrapolated to infinity. A higher AUC(0-inf) goes with high exposure. The Cmax is the maximum level reached in the sampled fluid or tissue. What is called AUC(0-t) is exposure summed from dosing to a finite time, without extrapolation to infinity. Lower therefore signals less exposure. The bioavailability is dose-corrected exposure relative to a reference, in per cent. Low readings indicate poor availability, high ones good availability.

These results are taken from ChEMBL document CHEMBL5154835, “Design, synthesis and biological evaluation of sulfonamides inhibitors of XPO1 displaying activity against multiple myeloma cells” (Eur J Med Chem, 2022).

The subject of data set [1] is MM1.S. Nature of the data set: Induction of apoptosis in human MM1.S cells assessed as assessed as necrotic cells at 10000 nM measured after 48 hrs by annexin V-FITC/PI staining based flow cytometry analysis (Rvb=7.60%). It is filed as functional.
The subject of data set [2] is MM1.S. Nature of the data set: Induction of cell cycle arrest in human MM1.S cells assessed as p53-dependent accumulation of cells in G2 phase at 1000 nM incubated for 48 hrs by propidium iodide staining based flow cytometric analysis (reference value: 18.4%). It is filed as functional. For orientation: Flow cytometry measures light scatter and fluorescence of single cells or particles in a stream.

Data set [3] in a line: Tmax in Sprague-Dawley rat at 10 mg/kg, IG measured upto 8 hrs by LC-MS/MS analysis. It is filed as ADME, organism-based. The settings on record: in vivo, po.
A short description of data set [4]: Tmax in Sprague-Dawley rat at 1 mg/kg, iv measured upto 8 hrs by LC-MS/MS analysis. The settings on record: in vivo. It is filed as ADME, organism-based.
A short description of data set [5]: Clearance in Sprague-Dawley rat at 10 mg/kg, IG measured upto 8 hrs by LC-MS/MS analysis. It is filed as ADME, organism-based. The settings on record: in vivo, po.
In data set [6] the test system is MM1.S. Briefly: Induction of cell cycle arrest in human MM1.S cells assessed as p53-dependent accumulation of cells in G2 phase at 5000 nM incubated for 48 hrs by propidium iodide staining based flow cytometric analysis (reference value: 18.4%). It is filed as functional.
Data set [7] is described as follows: AUC (0 to infinity) in Sprague-Dawley rat at 1 mg/kg, iv measured upto 8 hrs by LC-MS/MS analysis. It is filed as ADME, organism-based. More on the design: dose 1 mg/kg, time < 8 hrs, route iv. To be noted: in vivo.
Data set [8] relates to MM1.S. Briefly: Induction of cell cycle arrest in human MM1.S cells assessed as accumulation at S phase at 10000 nM incubated for 48 hrs by propidium iodide staining based flow cytometric analysis (reference value: 21.8%). It is filed as functional.
Data set [9] relates to MM1.S. Nature of the data set: Induction of apoptosis in human MM1.S cells assessed as assessed as viable cells at 1000 nM measured after 48 hrs by annexin V-FITC/PI staining based flow cytometry analysis (Rvb=85.74%). It is filed as functional. The settings on record: read-out: Activity.
Data set [10] is described as follows: Cmax in Sprague-Dawley rat at 10 mg/kg, IG measured upto 8 hrs by LC-MS/MS analysis. It is filed as ADME, organism-based. The arrangement: dose 10 mg/kg, time < 8 hrs, route ig. The settings on record: in vivo, po.
The nature of data set [11]: AUC (0 to t) in Sprague-Dawley rat at 10 mg/kg, IG measured upto 8 hrs by LC-MS/MS analysis. It is filed as ADME, organism-based. The arrangement: time < 8 hrs, dose 10 mg/kg, route ig. To be noted: in vivo, po.
For data set [12], the system named is MM1.S. Briefly: Induction of cell cycle arrest in human MM1.S cells assessed as accumulation at S phase at 1000 nM incubated for 48 hrs by propidium iodide staining based flow cytometric analysis (reference value: 21.8%). It is filed as functional.
Data set [13] is described as follows: Bioavailability in Sprague-Dawley rat at 10 mg/kg, IG measured upto 8 hrs by LC-MS/MS analysis. It is filed as ADME, organism-based. To be noted: in vivo, po.

With `CS(=O)(=O)Nc1ccc(/C(=C\n2cnc(-c3cc(C(F)(F)F)cc(C(F)(F)F)c3)n2)C(N)=O)cc1`, the Activity worked out at 7.34% with MM1.S [1]; 33.4% in the data set on MM1.S [2]; 37.3% in the data set with MM1.S [6]; 11.5% with MM1.S [8]; 18.3% in the data set on MM1.S [12]. Besides, the results for the Tmax in data set [3] and in data set [4] were 2.17 h and 4.8 min, respectively. This molecule gave an apparent clearance (CL/F) in data set [5] of 27.3 mL/min/kg. Besides, the AUC(0-inf) in data set [7] came to 1790 ng·h/mL. The viability at 1 µM with MM1.S [9] is 46.5%. In data set [10], the Cmax was determined as 1390 ng/mL. Also, the AUC(0-t) at 8 h in data set [11] is 5770 ng·h/mL. For the same molecule, the bioavailability in [13] is 34.6%.
